Measurements published in patent US20200171065A1, “METHOD FOR TREATING LIVER DISEASE WITH KINSENOSIDE” (HUAZHONG UNIVERSITY OF SCIENCE AND TECHNOLOGY, priority 2017, published 2020).

System: SD mice with ANIT induced intrahepatic cholestasis
Assay: ANIT-induced intrahepatic cholestasis
Type: in vivo
Description: 42 SPF SD mice were purchased and raised in the SPF experimental animal center of Tongji Medical College of Huazhong University of Science and Technology. They were provided with standard diet and drinking water. The room temperature was controlled at 23±2° C. After 3 days of adaptive feeding, they were given drugs by intragastric administration. 42 SD mice were randomly divided into 7 groups (normal control group, ANIT model group, KD low-dose group, KD medium dose group, KD high-dose group, UDCA positive control group and KD negative control group), 6 mice in each group were weighed and recorded daily. […] Thereafter, the drug was given again every 24 hours for 3 times, and the animals in each group were fasted (water was provided) after the third time. 72 hours later, the animals were killed and samples were collected.

C[C@H](CCC(=O)O)[C@H]1CC[C@H]2[C@@H]3[C@@H](O)C[C@@H]4C[C@H](O)CC[C@]4(C)[C@H]3CC[C@]12C [UDCA, reference compound]
plasma color (KD 50, 100, 200 mg/kg or UDCA 80 mg/kg by gavage): turned light yellow similar to that of the normal control group
hepatic sinusoid and inflammatory cell infiltration (HE staining) (different doses of KD, UDCA treatment group): normal hepatic sinusoid, obvious hepatocyte gap, and obvious recovery of inflammatory cell infiltration
plasma ALT, AST, AKP, TBIL and DBIL (low, medium and high doses of KD, 80 mg/kg UDCA): can significantly reduce ALT, AST, AKP, TBIL and DBIL
plasma TBA (medium and high doses of KD, 80 mg/kg UDCA): can significantly reduce TBA
